Data taken from US9949976B2, “Kinase inhibitor and use thereof” (Sihuan Pharmaceutical Holdings Group Ltd., priority 2013, dated 2018).

Assays:
H441 lung cancer cell = assay: BrdU cell proliferation assay (PerkinElme kit); format: cell-based; settings: Homo sapiens, NCI-H441, 48 h; read-out: In vitro cell-inhibiting activity IC50 H441
Method: (§1) Experimental method: cell proliferation assay was carried out by BrdU method (BrdU cell proliferation assay kit, PerkinElme Company).
(§2) Preparation of gradient dilution solutions of test compound: the stock solution containing 5 mM test compound was diluted by DMSO to prepare a 2 mM solution, then was subjected to 4-fold stepwise dilution to 9 concentration gradients.
(§3) (1) Cells grown to exponential growth phase were digested with pancreatin, and centrifuged to collect the cells. The adherent cells were re-suspended in the corresponding culture medium, counted, and seeded to a 96-well plate; H358 cells and SW780 cells were seeded at 4000 cells/well/100 μL; PC3 cells were seeded at 1500 cells/well/100 μL; H441 cells were seeded at 6000 cells/well/100 μL. The plates were placed in a cell incubator at 37° C. After the cells adhered to the wall, the medium was replaced by serum-free medium. The suspended cells MV-4-11 and JeKo-1 were re-suspended with serum-free medium, counted, seeded to a 96-well plate by 10000 cells/well/100 μL and placed in a cell incubator overnight at 37° C. with 5% CO2.
(§4) (2) To each well, 99 μL growth medium containing 2×FBS was added, then 1 μL diluted 200× test compound was added to the well. The final concentration of the test compound was 10000, 2500, 625, 156.25, 39.06, 9.77, 2.44, 0.61, 0.15 or 0 nM, and the cells were cultured for 48 h at 37° C.
(§5) (3) To each well, 2 μL 100-fold BrdU labelled solution was added, and the culture medium was sucked by a vacuum pump after incubation in a cell incubator overnight and equilibrated at room temperature for 0.5 h.
(§6) (4) To each well, 100 μL fixing solution was added; the solution was discarded after incubation for 30 min at room temperature.
(§7) (5) To each well, 100 μL 1-fold BrdU-Eu detection antibody solution was added, the solution was discarded after incubation for 1 h at room temperature, and the well was washed with 1-fold washing liquor at 250 μL/well for 5 times.
(§8) (6) To each well, 200 μL of DELFIA Inducer was added and incubated for 15 min at room temperature. Value of fluorescence (Flu) was measured by ELISA instrument
(§9) (2) The data was processed by GraphPad Prism 6 software to get a curve and IC50 values.

H358 lung cancer cell = assay: BrdU cell proliferation assay (PerkinElme kit); format: cell-based; settings: Homo sapiens, NCI-H358, 48 h; read-out: In vitro cell-inhibiting activity IC50 H358
Method: as §1, §2, §3, §4, §5, §6, §7, §8, §9

[1] = system: SW780 bladder cancer cell; assay: BrdU cell proliferation assay (PerkinElme kit); format: cell-based; settings: Homo sapiens, SW780, 48 h; read-out: In vitro cell-inhibiting activity IC50 SW780
Method: as §1, §2, §3, §4, §5, §6, §7, §8, §9

[2] = system: PC3 prostatic cancer cell; assay: BrdU cell proliferation assay (PerkinElme kit); format: cell-based; settings: 48 h; read-out: In vitro cell-inhibiting activity IC50 PC3
Method: as §1, §2, §3, §4, §5, §6, §7, §8, §9

JeKo-1 lymphoma cell = assay: BrdU cell proliferation assay (PerkinElme kit); format: cell-based; settings: Homo sapiens, JeKo-1, 48 h; read-out: In vitro cell-inhibiting activity IC50 JeKo-1
Method: as §1, §2, §3, §4, §5, §6, §7, §8, §9

[3] = system: Capan-1 human pancreatic cancer cell; assay: In vivo pharmacodynamics, subcutaneous Capan-1 pancreatic cancer xenograft model; set-up: species or system female BALB/c nude mouse; settings: Capan-1 xenograft, 100 mg/kg PO QD 21 days
Method: Culture medium of Capan-1 pancreatic cancer cell: IMDM culture medium+10% fetal bovine serum+100 U/mL penicillin and 100 μg/mL streptomycin+2 mM glutamine.
Cells were cultured and passaged. Tumor cells in exponential growth phase were used for in vivo tumor seeding. The cells were seeded subcutaneously to right lateral thorax of female BALB/c nude mouse. When tumor grew to a volume of about 150 mm^3, the animals were grouped and administered with a drug. Compound 1 was orally administrated once a day at an amount of 100 mg/kg, for 21 days. The volume of the drug for administration is 0.1 mL/10 g according to animal's body weight.
(§10) Tumor volume was measured with vernier calipers twice a week by measuring the major diameter and the minor diameter. The tumor volume is calculated by the following formula: volume=0.5×(major diameter)×(minor diameter). The relative tumor volume (RTV) and the proliferation ratio (T/C) were calculated according to the result of measurement. RTV=Vt/V0, wherein Vt is the average tumor volume on the t day after grouping, and V0 is the average tumor volume on the day of grouping. T/C=RTV of treatment group/RTV of solvent control group×100%.
SPSS statistical software was used for T test on the 2 groups of independent samples, and for group statistical analysis of tumor volumes. p<0.05 was regarded as having significant difference.

[4] = system: esophageal cancer PDX model; assay: In vivo pharmacodynamics, esophageal cancer PDX model; set-up: species or system female BALB/c nude mouse; settings: 150 mg/kg PO QD 21 days
Method: Tumor tissues were harvested from tumor-bearing mice of esophageal cancer PDX model, cut into pieces with diameter of 2-4 mm and seeded subcutaneously to right lateral thorax of female BALB/c nude mouse. When the tumors' average volume reached about 150 mm^3, the animals were grouped and administered with a drug. Compound 1 was orally administrated once a day at an amount of 150 mg/kg, for 21 days. The volume of the drug for administration is 0.1 mL/10 g according to animal's body weight.
as §10, with “diameter)^2.” for “diameter).”, “T/C (%)=RTV” for “T/C=RTV”
One-way ANOVA was used for analysing the group statistical analysis of tumor volumes. p<0.05 was regarded as having significant difference.

CCN1CCN(Cc2cnc(Nc3cc(-c4cc(F)c5nc(C)n(C(C)C)c5c4)c(F)cn3)nc2)CC1 [Compound 1, 5-((4-ethylpiperazin-1-yl)methyl)-N-(5-fluoro-4-(4-fluoro-1-isopropyl-2-methyl-1H-benzo[d]imidazol-6-yl)pyridin-2-yl)pyrimidin-2-amine]
IC50 (H441 lung cancer cell): 148 nM
IC50 (H358 lung cancer cell): 291 nM
IC50 [1]: 162 nM
IC50 [2]: 260 nM
IC50 (JeKo-1 lymphoma cell): 37 nM
T/C [3]: 31.5%
TGI (inhibition ratio of tumor growth) [3]: 68.5%
Tumor volume after administration ([3]; average ± standard error): 368 ± 48 mm^3
Tumor volume before administration ([3]; average ± standard error): 150 ± 12 mm^3
T/C (proliferation ratio) ([4]; 150 mg/kg): 29%
Tumor volume after administration ([4]; average ± standard error): 221.6 ± 27.2 mm^3
Tumor volume before administration ([4]; average ± standard error): 177.7 ± 28.5 mm^3
